# ChEMBL document CHEMBL5143701, “Evaluation of potential anticonvulsant fluorinated N-benzamide enaminones as T-type Ca2+ channel blockers” (Bioorg Med Chem, 2022)
# The source made the active and inactive calls. No cut-off for these calls is given here.
# Key:
# Type in all cases: cell-based
# ND7/23 [1] = assay: Inhibition of Voltage-dependent T-type calcium channel in mouse ND7/23 cells assessed as reduction in volatage induced T-type Ca2+ current density at 50 uM incubated for 5 mins by whole cell voltage-clamp assay
# [2] = molecular target: Voltage-dependent T-type calcium channel subunit alpha-1H (Homo sapiens) (UniProt O95180); assay: Inhibition of Cav3.2 (unknown origin) stably transfected in HEK293 cells assessed as volatage induced T-type Ca2+ current at 1 to 50 uM incubated for 5 mins by whole cell voltage-clamp assay; conditions: dose 1-50 µM
# ND7/23 [3] = assay: Inhibition of Voltage-dependent T-type calcium channel in mouse ND7/23 cells assessed as reduction in volatage induced T-type Ca2+ current density at 50 uM incubated for 5 mins followed by compound washout by whole cell voltage-clamp assay
# [4] = Inhibition of Voltage-dependent T-type calcium channel in mouse ND7/23 cells assessed as reduction in volatage induced T-type Ca2+ current density incubated for 5 mins by whole cell voltage-clamp assay; conditions: ND7/23, 5 min
# [5] = molecular target: Voltage-dependent T-type calcium channel subunit alpha-1H (Homo sapiens) (UniProt O95180); assay: Inhibition of Cav3.2 (unknown origin) stably transfected in HEK293 cells assessed as reduction in volatage induced peak current at 10 uM incubated for 5 mins by whole cell voltage-clamp assay
# [6] = molecular target: Voltage-dependent T-type calcium channel subunit alpha-1H (Homo sapiens) (UniProt O95180); assay: Inhibition of Cav3.2 (unknown origin) stably transfected in HEK293 cells assessed as activation time constant transient current at 10 uM incubated for 5 mins by whole cell voltage-clamp assay
# [7] = molecular target: Voltage-dependent T-type calcium channel subunit alpha-1H (Homo sapiens) (UniProt O95180); assay: Inhibition of Cav3.2 (unknown origin) stably transfected in HEK293 cells assessed as V1/2 at 10 uM incubated for 5 mins by whole cell voltage-clamp assay (reference value: -64.8 +/- 1.3mV)
# [8] = molecular target: Voltage-dependent T-type calcium channel subunit alpha-1H (Homo sapiens) (UniProt O95180); assay: Inhibition of Cav3.2 (unknown origin) stably transfected in HEK293 cells assessed as slope factor at 10 uM incubated for 5 mins by whole cell voltage-clamp assay (reference value: 5.2 +/- 0.2No_unit)
# [9] = molecular target: Voltage-dependent T-type calcium channel subunit alpha-1H (Homo sapiens) (UniProt O95180); assay: Inhibition of Cav3.2 (unknown origin) stably transfected in HEK293 cells assessed as increase in recovery time at 10 uM incubated for 5 mins by whole cell voltage-clamp assay (reference value: 514.5 +/- 37.8ms)
# HEK293 = assay: Inhibition of Cav3.2 (unknown origin) stably transfected in HEK293 cells assessed as reduction in volatage induced Ca2+ current density at 10 uM incubated for 5 mins by whole cell voltage-clamp assay; conditions: Homo sapiens
# [10] = molecular target: Voltage-dependent T-type calcium channel subunit alpha-1I (Homo sapiens) (UniProt Q9P0X4); assay: Inhibition of Cav3.3 (unknown origin) stably transfected in HEK293 cells assessed as activation time constant transient current at 10 uM incubated for 5 mins by whole cell voltage-clamp assay
# [11] = molecular target: Voltage-dependent T-type calcium channel subunit alpha-1I (Homo sapiens) (UniProt Q9P0X4); assay: Inhibition of Cav3.3 (unknown origin) stably transfected in HEK293 cells assessed as reduction inactivation time constant transient current at 10 uM incubated for 5 mins by whole cell voltage-clamp assay
# [12] = molecular target: Voltage-dependent T-type calcium channel subunit alpha-1I (Homo sapiens) (UniProt Q9P0X4); assay: Inhibition of Cav3.3 (unknown origin) stably transfected in HEK293 cells assessed as V1/2 at 10 uM incubated for 5 mins by whole cell voltage-clamp assay (reference value: -65.6 +/- 3.1mV)
# [13] = molecular target: Voltage-dependent T-type calcium channel subunit alpha-1I (Homo sapiens) (UniProt Q9P0X4); assay: Inhibition of Cav3.3 (unknown origin) stably transfected in HEK293 cells assessed as slope factor at 10 uM incubated for 5 mins by whole cell voltage-clamp assay (reference value: 5.3 +/- 0.6mV)
# Sequence of Voltage-dependent T-type calcium channel subunit alpha-1H (Homo sapiens) (O95180 whole entry): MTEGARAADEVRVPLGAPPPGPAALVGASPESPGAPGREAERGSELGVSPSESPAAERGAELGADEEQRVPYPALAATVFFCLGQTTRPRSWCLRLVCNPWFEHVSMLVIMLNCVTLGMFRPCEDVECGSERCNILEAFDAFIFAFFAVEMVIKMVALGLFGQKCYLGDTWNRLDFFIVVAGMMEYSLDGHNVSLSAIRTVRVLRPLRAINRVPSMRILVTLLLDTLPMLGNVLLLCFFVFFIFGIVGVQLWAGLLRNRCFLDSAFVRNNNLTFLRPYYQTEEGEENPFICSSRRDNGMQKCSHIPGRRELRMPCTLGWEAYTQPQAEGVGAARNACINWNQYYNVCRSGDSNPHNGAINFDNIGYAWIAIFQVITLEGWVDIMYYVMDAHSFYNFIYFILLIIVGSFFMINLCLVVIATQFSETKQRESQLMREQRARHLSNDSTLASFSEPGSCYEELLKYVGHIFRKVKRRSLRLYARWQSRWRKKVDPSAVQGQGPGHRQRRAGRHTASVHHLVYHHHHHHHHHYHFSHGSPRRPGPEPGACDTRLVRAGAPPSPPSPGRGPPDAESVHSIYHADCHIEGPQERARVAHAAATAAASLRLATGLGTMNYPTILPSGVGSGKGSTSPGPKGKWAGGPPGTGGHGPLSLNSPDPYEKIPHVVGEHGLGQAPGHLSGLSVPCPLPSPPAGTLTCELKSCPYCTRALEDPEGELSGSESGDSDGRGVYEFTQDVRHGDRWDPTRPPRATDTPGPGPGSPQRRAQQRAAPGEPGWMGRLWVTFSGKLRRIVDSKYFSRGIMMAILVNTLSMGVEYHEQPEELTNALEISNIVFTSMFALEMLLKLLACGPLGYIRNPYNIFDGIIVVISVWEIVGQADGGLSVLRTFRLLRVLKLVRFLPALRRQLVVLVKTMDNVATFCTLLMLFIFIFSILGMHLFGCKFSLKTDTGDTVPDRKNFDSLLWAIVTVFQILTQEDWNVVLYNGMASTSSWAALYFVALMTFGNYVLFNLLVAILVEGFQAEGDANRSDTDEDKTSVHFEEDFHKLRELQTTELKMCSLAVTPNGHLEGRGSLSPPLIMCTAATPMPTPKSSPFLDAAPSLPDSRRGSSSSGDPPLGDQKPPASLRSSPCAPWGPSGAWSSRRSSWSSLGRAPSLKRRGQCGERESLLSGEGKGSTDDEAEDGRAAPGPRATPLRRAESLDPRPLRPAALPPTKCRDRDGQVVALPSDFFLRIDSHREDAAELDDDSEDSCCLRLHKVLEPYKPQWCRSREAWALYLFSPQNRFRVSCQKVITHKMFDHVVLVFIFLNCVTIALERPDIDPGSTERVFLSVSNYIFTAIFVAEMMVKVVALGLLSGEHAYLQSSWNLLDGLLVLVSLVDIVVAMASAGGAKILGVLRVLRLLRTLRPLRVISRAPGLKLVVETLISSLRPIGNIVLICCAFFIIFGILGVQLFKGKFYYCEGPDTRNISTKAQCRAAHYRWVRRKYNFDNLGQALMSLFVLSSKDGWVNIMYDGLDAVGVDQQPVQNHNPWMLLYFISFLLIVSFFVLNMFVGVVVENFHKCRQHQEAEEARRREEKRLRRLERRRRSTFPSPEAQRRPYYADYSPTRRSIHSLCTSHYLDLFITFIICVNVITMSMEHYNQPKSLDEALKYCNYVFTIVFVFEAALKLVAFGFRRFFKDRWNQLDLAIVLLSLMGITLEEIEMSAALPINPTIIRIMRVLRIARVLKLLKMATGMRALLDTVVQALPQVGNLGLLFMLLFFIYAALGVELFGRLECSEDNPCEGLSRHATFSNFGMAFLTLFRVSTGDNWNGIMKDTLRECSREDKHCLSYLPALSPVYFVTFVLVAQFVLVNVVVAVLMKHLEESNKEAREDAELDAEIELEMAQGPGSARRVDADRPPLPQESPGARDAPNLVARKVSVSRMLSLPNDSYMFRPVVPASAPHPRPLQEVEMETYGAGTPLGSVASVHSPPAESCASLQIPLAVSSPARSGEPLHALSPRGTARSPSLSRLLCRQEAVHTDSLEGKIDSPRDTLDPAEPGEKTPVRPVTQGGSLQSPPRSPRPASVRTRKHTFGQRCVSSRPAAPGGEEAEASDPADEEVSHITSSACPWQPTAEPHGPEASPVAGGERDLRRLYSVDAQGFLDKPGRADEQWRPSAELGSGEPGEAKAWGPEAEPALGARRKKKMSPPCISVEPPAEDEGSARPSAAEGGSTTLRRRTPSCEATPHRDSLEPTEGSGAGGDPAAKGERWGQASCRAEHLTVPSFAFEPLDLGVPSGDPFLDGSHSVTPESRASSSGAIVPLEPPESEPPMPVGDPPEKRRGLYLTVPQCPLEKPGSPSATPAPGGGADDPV
# Sequence of Voltage-dependent T-type calcium channel subunit alpha-1I (Homo sapiens) (Q9P0X4 whole entry): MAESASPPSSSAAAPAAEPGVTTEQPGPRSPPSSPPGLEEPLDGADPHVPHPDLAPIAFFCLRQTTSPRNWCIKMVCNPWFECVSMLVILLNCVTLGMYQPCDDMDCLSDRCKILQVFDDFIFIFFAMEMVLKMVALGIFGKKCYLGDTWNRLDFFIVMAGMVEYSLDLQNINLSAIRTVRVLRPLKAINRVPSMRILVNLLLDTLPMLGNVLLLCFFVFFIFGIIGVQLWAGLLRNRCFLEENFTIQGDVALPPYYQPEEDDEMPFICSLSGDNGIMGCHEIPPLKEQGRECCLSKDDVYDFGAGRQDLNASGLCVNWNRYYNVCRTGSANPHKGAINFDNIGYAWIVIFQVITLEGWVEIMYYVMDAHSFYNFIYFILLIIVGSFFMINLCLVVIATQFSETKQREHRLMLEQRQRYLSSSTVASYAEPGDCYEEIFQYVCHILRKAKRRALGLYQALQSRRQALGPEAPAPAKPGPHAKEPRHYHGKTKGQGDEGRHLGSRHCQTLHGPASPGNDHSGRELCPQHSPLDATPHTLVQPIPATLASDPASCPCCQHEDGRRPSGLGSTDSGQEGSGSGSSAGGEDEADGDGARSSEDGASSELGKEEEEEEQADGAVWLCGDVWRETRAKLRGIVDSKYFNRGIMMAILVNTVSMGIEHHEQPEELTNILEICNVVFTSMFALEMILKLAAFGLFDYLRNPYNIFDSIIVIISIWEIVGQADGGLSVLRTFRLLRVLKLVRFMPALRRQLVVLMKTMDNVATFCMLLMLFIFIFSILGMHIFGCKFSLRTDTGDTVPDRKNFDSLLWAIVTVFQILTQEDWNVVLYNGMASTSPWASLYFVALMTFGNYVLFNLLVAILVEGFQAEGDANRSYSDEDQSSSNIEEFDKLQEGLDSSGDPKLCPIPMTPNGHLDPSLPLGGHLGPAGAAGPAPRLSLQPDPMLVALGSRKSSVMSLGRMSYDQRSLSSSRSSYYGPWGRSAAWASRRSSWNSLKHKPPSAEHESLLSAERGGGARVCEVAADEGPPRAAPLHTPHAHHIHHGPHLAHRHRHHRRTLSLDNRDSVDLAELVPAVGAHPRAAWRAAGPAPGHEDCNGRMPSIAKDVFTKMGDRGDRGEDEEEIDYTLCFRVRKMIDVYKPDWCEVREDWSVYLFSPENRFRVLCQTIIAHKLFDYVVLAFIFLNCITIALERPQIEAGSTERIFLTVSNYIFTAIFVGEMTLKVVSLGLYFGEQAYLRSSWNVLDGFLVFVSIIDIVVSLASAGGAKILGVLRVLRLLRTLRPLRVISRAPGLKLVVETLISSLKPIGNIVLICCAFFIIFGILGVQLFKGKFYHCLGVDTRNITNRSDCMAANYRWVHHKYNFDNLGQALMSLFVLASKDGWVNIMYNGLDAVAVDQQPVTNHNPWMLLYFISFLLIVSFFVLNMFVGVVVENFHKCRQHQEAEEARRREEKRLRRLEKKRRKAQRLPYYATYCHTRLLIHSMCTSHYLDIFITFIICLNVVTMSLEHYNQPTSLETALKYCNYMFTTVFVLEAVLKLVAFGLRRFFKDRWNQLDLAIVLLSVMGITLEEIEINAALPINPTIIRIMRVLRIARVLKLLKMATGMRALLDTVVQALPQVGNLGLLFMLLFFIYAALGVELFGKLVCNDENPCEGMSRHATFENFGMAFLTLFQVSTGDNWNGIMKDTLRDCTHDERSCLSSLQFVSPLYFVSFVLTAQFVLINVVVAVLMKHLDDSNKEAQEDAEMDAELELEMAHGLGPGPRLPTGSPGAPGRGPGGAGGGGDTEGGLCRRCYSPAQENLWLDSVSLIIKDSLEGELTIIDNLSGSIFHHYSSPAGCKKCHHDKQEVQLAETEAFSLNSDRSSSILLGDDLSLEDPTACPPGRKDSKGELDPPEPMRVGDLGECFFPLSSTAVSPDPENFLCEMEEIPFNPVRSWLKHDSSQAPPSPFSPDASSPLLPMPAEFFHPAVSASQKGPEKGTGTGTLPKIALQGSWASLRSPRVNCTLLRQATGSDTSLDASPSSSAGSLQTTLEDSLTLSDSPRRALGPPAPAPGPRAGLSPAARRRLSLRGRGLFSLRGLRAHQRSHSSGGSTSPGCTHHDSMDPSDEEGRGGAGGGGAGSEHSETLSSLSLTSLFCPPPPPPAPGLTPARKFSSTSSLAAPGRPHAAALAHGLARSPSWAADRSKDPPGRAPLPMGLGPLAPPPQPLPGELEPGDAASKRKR
SMILES,inhibition (ND7/23 [1]),inhibition [2],inhibition (ND7/23 [3]),IC50 [4],inhibition [5],inhibition [6],V1/2 [7],Activity [8],TIME [9],inhibition (HEK293),inhibition [10],inhibition [11],V1/2 [12],Activity [13]
CC1CC(=O)C=C(NC(=O)c2cccc(C(F)(F)F)c2)C1 (stereo not given),Active,,,,,,,,,,,,,
CC1CC(=O)C=C(NC(=O)c2cc(C(F)(F)F)cc(C(F)(F)F)c2)C1 (stereo not given),,Active,Active,18.9 µM,Active,Active,-70.2 mV,6,0.000267 h,Active,Active,Active,-58.5 mV,5.3
CC1CC(=O)C=C(NC(=O)c2ccccc2C(F)(F)F)C1 (stereo not given),Active,,,,,,,,,,,,,
